How the values were obtained:
Experiment in all cases: Radiolabeled ATP kinase assay, panel of 371 kinases (Table S6)
Format in all cases: biochemical
[1] = biological target: T1, panel of 371 human kinases (Homo sapiens, UniProt O15146); details: MUSK; 0.1 μM; 10 μM ATP; read-out: % Enzyme Activity (relative to DMSO controls)
T1 construct: purchased Reaction Biology Corp
Excerpt: (§1) ; FIG. 38C). […]. Further targeted analyses, such as genetic knock-down or knock-out, may be warranted to parse the role of these additional kinases in our model of neurodegeneration.

[2] = biological target: T2, panel of 371 human kinases (Homo sapiens, UniProt O15264); details: P38d/MAPK13; 0.1 μM; 10 μM ATP; read-out: % Enzyme Activity (relative to DMSO controls)
T2 construct: purchased Reaction Biology Corp
Excerpt: as §1

[3] = biological target: T3, panel of 371 human kinases (Homo sapiens, UniProt O43781); details: DYRK3; 0.1 μM; 10 μM ATP; read-out: % Enzyme Activity (relative to DMSO controls)
T3 construct: purchased Reaction Biology Corp
Excerpt: as §1

[4] = biological target: T4, panel of 371 human kinases (Homo sapiens, UniProt O75460); details: ERN1/IRE1; 0.1 μM; 10 μM ATP; read-out: % Enzyme Activity (relative to DMSO controls)
T4 construct: purchased Reaction Biology Corp
Excerpt: as §1

[5] = biological target: T5, panel of 371 human kinases (Homo sapiens, UniProt O95835); details: LATS1; 0.1 μM; 10 μM ATP; read-out: % Enzyme Activity (relative to DMSO controls)
T5 construct: purchased Reaction Biology Corp
Excerpt: as §1

[6] = biological target: T6, panel of 371 human kinases (Homo sapiens, UniProt P06239); details: LCK; 0.1 μM; 10 μM ATP; read-out: % Enzyme Activity (relative to DMSO controls)
T6 construct: purchased Reaction Biology Corp
Excerpt: as §1

[7] = biological target: T7, panel of 371 human kinases (Homo sapiens, UniProt P22694); details: PKAcb; 0.1 μM; 10 μM ATP; read-out: % Enzyme Activity (relative to DMSO controls)
T7 construct: purchased Reaction Biology Corp
Excerpt: as §1

[8] = biological target: T8, panel of 371 human kinases (Homo sapiens, UniProt P49759); details: CLK1; 0.1 μM; 10 μM ATP; read-out: % Enzyme Activity (relative to DMSO controls)
T8 construct: purchased Reaction Biology Corp
Excerpt: as §1

[9] = biological target: T9, panel of 371 human kinases (Homo sapiens, UniProt P51817); details: PRKX; 0.1 μM; 10 μM ATP; read-out: % Enzyme Activity (relative to DMSO controls)
T9 construct: purchased Reaction Biology Corp
Excerpt: as §1

[10] = biological target: T10, panel of 371 human kinases (Homo sapiens, UniProt P53355); details: DAPK1; 0.1 μM; 10 μM ATP; read-out: % Enzyme Activity (relative to DMSO controls)
T10 construct: purchased Reaction Biology Corp
Excerpt: as §1

[11] = biological target: T11, panel of 371 human kinases (Homo sapiens, UniProt P53778); details: P38g; 0.1 μM; 10 μM ATP; read-out: % Enzyme Activity (relative to DMSO controls)
T11 construct: purchased Reaction Biology Corp
Excerpt: as §1

[12] = biological target: T12, panel of 371 human kinases (Homo sapiens, UniProt P78362); details: SRPK2; 0.1 μM; 10 μM ATP; read-out: % Enzyme Activity (relative to DMSO controls)
T12 construct: purchased Reaction Biology Corp
Excerpt: as §1

[13] = biological target: T13, panel of 371 human kinases (Homo sapiens, UniProt Q00536); details: CDK16/cyclin Y (PCTAIRE); 0.1 μM; 10 μM ATP; read-out: % Enzyme Activity (relative to DMSO controls)
T13 construct: purchased Reaction Biology Corp
Excerpt: as §1

[14] = biological target: T14, panel of 371 human kinases (Homo sapiens, UniProt Q04912); details: RON/MST1R; 0.1 μM; 10 μM ATP; read-out: % Enzyme Activity (relative to DMSO controls)
T14 construct: purchased Reaction Biology Corp
Excerpt: as §1

[15] = biological target: T15, panel of 371 human kinases (Homo sapiens, UniProt Q06187); details: BTK; 0.1 μM; 10 μM ATP; read-out: % Enzyme Activity (relative to DMSO controls)
T15 construct: purchased Reaction Biology Corp
Excerpt: as §1

[16] = biological target: T16, panel of 371 human kinases (Homo sapiens, UniProt Q08345); details: DDR1; 0.1 μM; 10 μM ATP; read-out: % Enzyme Activity (relative to DMSO controls)
T16 construct: purchased Reaction Biology Corp
Excerpt: as §1

[17] = biological target: T17, panel of 371 human kinases (Homo sapiens, UniProt Q13164); details: ERK5/MAPK7; 0.1 μM; 10 μM ATP; read-out: % Enzyme Activity (relative to DMSO controls)
T17 construct: purchased Reaction Biology Corp
Excerpt: as §1

[18] = biological target: T18, panel of 371 human kinases (Homo sapiens, UniProt Q13470); details: TNK1; 0.1 μM; 10 μM ATP; read-out: % Enzyme Activity (relative to DMSO controls)
T18 construct: purchased Reaction Biology Corp
Excerpt: as §1

[19] = biological target: T19, panel of 371 human kinases (Homo sapiens, UniProt Q15831); details: LKB1; 0.1 μM; 10 μM ATP; read-out: % Enzyme Activity (relative to DMSO controls)
T19 construct: purchased Reaction Biology Corp
Excerpt: as §1

[20] = biological target: T20, panel of 371 human kinases (Homo sapiens, UniProt Q16832); details: DDR2; 0.1 μM; 10 μM ATP; read-out: % Enzyme Activity (relative to DMSO controls)
T20 construct: purchased Reaction Biology Corp
Excerpt: as §1

[21] = biological target: T21, panel of 371 human kinases (Homo sapiens, UniProt Q8WTQ7); details: GRK7; 0.1 μM; 10 μM ATP; read-out: % Enzyme Activity (relative to DMSO controls)
T21 construct: purchased Reaction Biology Corp
Excerpt: as §1

[22] = biological target: T22, panel of 371 human kinases (Homo sapiens, UniProt Q92630); details: DYRK2; 0.1 μM; 10 μM ATP; read-out: % Enzyme Activity (relative to DMSO controls)
T22 construct: purchased Reaction Biology Corp
Excerpt: as §1

[23] = biological target: T23, panel of 371 human kinases (Homo sapiens, UniProt Q9NWZ3); details: IRAK4; 0.1 μM; 10 μM ATP; read-out: % Enzyme Activity (relative to DMSO controls)
T23 construct: purchased Reaction Biology Corp
Excerpt: as §1

[24] = biological target: T24, panel of 371 human kinases (Homo sapiens, UniProt Q9UEE5); details: DRAK1/STK17A; 0.1 μM; 10 μM ATP; read-out: % Enzyme Activity (relative to DMSO controls)
T24 construct: purchased Reaction Biology Corp
Excerpt: as §1

T13 sequence (Q00536 whole entry): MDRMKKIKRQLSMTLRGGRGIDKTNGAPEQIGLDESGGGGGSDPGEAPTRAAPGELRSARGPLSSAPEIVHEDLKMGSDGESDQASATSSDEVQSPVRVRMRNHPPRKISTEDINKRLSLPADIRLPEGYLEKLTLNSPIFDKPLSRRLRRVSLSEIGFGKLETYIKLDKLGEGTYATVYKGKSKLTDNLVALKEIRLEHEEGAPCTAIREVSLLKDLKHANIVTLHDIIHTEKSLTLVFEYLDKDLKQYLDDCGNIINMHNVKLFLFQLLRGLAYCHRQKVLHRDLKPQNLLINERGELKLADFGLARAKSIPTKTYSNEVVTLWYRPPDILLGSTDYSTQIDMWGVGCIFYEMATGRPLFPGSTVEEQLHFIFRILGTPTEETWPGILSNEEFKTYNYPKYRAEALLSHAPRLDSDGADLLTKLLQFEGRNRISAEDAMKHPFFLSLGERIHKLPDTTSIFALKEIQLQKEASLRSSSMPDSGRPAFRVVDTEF
T12 sequence (P78362 whole entry): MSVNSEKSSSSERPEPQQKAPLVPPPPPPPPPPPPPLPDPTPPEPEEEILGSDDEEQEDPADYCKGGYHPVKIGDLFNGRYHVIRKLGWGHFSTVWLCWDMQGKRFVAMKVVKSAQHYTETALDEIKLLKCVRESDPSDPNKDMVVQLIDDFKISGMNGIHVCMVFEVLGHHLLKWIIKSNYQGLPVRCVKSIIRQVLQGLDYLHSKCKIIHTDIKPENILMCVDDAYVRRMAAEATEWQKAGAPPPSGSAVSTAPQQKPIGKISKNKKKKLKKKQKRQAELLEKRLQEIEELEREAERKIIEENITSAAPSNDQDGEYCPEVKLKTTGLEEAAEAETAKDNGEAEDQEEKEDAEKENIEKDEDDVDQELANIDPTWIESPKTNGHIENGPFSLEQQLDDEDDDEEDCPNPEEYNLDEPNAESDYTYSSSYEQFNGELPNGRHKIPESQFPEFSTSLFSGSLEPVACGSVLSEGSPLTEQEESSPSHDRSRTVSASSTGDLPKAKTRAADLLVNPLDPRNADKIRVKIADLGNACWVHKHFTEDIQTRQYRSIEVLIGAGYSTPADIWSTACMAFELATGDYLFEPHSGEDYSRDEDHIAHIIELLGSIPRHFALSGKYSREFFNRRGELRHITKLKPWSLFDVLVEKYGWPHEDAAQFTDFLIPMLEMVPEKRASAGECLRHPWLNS
T3 sequence (O43781 whole entry): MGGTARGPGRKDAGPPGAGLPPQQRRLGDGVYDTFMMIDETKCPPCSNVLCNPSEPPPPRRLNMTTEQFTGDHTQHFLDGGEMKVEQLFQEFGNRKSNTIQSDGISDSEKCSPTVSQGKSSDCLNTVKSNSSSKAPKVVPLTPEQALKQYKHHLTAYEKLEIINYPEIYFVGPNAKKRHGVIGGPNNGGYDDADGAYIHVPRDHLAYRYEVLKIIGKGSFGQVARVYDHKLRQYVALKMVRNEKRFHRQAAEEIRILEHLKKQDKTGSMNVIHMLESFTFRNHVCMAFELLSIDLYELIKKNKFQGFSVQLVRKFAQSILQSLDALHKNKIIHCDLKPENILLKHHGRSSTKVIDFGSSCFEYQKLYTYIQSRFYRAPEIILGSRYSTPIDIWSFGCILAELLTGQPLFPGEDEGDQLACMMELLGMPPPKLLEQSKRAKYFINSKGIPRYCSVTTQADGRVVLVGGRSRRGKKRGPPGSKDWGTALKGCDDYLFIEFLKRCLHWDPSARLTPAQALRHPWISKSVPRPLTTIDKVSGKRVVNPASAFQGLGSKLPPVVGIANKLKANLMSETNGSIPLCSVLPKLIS
T24 sequence (Q9UEE5 whole entry): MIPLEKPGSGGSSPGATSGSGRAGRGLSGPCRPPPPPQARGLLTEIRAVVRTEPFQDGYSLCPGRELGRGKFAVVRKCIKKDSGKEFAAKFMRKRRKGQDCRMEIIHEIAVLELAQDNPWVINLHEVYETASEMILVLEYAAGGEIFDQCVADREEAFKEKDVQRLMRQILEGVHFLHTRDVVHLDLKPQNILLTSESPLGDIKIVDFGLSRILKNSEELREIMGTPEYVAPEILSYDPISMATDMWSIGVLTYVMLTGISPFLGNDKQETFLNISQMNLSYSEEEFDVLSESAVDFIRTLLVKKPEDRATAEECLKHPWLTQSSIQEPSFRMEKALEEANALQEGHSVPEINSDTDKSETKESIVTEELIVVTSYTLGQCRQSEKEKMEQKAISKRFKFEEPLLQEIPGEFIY
T4 sequence (O75460 19-977): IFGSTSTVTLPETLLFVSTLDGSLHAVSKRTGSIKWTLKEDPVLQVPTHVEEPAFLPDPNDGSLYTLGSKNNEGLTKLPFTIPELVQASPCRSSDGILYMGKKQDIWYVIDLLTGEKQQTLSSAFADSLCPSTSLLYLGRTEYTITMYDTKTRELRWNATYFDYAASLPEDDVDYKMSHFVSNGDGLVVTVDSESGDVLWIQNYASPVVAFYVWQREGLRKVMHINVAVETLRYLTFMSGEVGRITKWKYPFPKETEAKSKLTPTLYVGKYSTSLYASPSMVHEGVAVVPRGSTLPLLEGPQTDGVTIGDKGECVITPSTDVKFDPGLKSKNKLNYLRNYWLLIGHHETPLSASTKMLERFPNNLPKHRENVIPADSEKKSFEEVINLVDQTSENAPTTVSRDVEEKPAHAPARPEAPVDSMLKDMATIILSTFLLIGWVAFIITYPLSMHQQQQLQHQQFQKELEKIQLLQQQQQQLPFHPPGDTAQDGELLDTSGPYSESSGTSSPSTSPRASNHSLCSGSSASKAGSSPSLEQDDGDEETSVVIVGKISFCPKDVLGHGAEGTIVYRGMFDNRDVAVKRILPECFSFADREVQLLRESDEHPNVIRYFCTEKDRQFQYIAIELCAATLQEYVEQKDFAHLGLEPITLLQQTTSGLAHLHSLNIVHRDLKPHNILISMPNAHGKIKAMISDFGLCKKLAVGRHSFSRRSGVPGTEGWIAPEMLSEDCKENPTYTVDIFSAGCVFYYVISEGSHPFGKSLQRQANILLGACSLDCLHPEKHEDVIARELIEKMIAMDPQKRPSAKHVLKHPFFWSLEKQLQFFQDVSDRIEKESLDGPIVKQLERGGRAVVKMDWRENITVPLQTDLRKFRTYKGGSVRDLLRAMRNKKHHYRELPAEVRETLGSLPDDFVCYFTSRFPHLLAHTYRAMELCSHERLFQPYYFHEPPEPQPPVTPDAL
T19 sequence (Q15831 whole entry): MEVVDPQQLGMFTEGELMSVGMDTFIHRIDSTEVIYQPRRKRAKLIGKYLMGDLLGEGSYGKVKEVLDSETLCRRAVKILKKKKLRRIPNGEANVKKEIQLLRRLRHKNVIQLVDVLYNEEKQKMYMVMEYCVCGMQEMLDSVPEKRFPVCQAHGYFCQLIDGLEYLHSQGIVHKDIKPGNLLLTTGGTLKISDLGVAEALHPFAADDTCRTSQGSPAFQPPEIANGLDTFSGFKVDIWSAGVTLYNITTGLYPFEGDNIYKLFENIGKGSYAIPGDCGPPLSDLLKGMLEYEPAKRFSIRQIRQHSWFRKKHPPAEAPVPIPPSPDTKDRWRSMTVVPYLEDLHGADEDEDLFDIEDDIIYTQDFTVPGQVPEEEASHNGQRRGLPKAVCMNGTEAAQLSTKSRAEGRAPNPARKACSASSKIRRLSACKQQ
T15 sequence (Q06187 whole entry): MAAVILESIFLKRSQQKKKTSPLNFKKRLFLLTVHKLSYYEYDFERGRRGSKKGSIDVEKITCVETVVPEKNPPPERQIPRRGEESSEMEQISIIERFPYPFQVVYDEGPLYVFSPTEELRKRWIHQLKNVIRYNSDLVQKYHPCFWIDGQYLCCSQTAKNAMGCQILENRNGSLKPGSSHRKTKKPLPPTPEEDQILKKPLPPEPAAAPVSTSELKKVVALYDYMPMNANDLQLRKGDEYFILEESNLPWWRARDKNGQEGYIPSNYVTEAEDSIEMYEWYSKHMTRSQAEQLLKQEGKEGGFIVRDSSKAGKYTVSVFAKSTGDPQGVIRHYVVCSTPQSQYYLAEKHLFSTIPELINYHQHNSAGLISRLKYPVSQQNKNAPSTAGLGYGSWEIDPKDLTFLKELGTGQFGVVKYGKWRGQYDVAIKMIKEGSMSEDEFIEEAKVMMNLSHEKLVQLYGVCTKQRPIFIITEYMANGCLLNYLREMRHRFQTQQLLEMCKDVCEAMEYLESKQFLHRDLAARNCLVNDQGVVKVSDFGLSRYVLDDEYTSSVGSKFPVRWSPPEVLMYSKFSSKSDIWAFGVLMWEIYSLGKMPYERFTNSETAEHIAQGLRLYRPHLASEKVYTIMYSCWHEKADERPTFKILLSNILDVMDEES
T2 sequence (O15264 whole entry): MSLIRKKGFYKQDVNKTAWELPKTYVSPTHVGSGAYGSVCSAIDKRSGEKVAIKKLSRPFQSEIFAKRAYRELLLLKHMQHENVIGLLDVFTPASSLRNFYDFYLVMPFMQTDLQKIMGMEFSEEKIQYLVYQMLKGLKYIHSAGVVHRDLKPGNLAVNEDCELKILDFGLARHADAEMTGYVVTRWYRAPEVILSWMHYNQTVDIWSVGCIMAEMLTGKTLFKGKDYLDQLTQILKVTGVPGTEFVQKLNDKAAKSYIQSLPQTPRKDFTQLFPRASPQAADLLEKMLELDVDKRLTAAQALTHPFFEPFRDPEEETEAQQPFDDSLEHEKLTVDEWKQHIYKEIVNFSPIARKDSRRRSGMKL
T9 sequence (P51817 whole entry): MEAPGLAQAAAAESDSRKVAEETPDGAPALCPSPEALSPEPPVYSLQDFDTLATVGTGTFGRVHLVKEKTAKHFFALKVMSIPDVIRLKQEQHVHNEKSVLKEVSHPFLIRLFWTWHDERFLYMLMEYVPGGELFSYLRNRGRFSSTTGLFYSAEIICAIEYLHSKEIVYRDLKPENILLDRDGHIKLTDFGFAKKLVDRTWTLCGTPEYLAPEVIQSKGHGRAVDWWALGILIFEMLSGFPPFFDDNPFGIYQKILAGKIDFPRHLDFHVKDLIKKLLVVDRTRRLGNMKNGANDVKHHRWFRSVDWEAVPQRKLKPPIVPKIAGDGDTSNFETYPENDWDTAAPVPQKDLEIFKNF

Row | Structure (SMILES) | remaining activity at 0.1 µM [1] [%] | remaining activity at 0.1 µM [2] [%] | remaining activity at 0.1 µM [3] [%] | remaining activity at 0.1 µM [4] [%] | remaining activity at 0.1 µM [5] [%] | remaining activity at 0.1 µM [6] [%] | remaining activity at 0.1 µM [7] [%] | remaining activity at 0.1 µM [8] [%] | remaining activity at 0.1 µM [9] [%] | remaining activity at 0.1 µM [10] [%] | remaining activity at 0.1 µM [11] [%] | remaining activity at 0.1 µM [12] [%] | remaining activity at 0.1 µM [13] [%] | remaining activity at 0.1 µM [14] [%] | remaining activity at 0.1 µM [15] [%] | remaining activity at 0.1 µM [16] [%] | remaining activity at 0.1 µM [17] [%] | remaining activity at 0.1 µM [18] [%] | remaining activity at 0.1 µM [19] [%] | remaining activity at 0.1 µM [20] [%] | further results
1 | CN1CCN(Cc2ccc(-c3cnc4[nH]cc(-c5ccc6[nH]ccc6c5)c4c3)cc2)CC1 [Compound 1, 3-(1H-Indol-5-yl)-5-(4-((4-methylpiperazin-1-yl)methyl)phenyl)-1H-pyrrolo[2,3-b]pyridine, reference compound] | 101 | 132 | 74.9 | 107 | 83.6 | 94.2 | 106 | 58.8 | 95.5 | 96.3 | 108 | 80.3 | 130 | 91.6 | 103 | 89.9 | 102 | 97 | 101 | 102 | remaining activity at 0.1 µM [21]: 101%; remaining activity at 0.1 µM [22]: 71.7%; remaining activity at 0.1 µM [23]: 106%; remaining activity at 0.1 µM [24]: 88.7%
2 | OCCN1CCN(Cc2ccc(-c3cnc4[nH]cc(-c5cccc(Cl)c5)c4c3)cc2)CC1 [Compound 12k, 2-(4-(4-(3-(3-Chlorophenyl)-1H-pyrrolo[2,3-b]pyridin-5-yl)benzyl)piperazin-1-yl)ethan-1-ol] | 86.7 | 103 | 89.2 | 98.9 | 84.4 | 98.8 | 92.6 | 68.6 | 96.1 | 95.4 | 99.7 | 93.6 | 97.3 | 94.1 | 99.7 | 86.6 | 113 | 95.6 | 78.7 | 100 | remaining activity at 0.1 µM [21]: 97.1%; remaining activity at 0.1 µM [22]: 85.6%; remaining activity at 0.1 µM [23]: 95.4%; remaining activity at 0.1 µM [24]: 88.8%
